According to patent US9096591B2, “Tetracyclic compounds” (Medivation Technologies, Inc., priority 2007, dated 2015):

Columns and labels:
[1] = tested on: adrenergic receptors α1D, α2A, α2B; serotonin receptor 5-HT6; dopamine receptor D2L; assay: Classification of compounds (Type 1-4) from receptor binding and neurite outgrowth
rat brain mitochondria = assay: Mitochondrial membrane potential (safranine test); type: biochemical, Wistar rats; conditions: compounds did react with safranine in buffer without mitochondria
Experimental: The same experimental conditions were used for the assessment of alterations of the mitochondrial membrane potential, except that safranine was included in incubation medium at a final concentration of 10 mkM and succinate was added before the compounds of the invention. This concentration of safranine was determined before hand as the optimal compromise between signal/baseline ratio and interference of safranine itself with swelling induced by Ca/Pi (safranine tended to enhance Ca/Pi-induced swelling at concentrations above 20 mkM). Changes in the status of the mPT pore were assessed spectrophotometrically at 554 and 524 nm in a cuvette in a Beckman DU 640 spectrophotometer. A554-524 represents the characteristics of mitochondrial potential and A554-characteristics of mitochondrial swelling.

C57BL/6 mice [2] = assay: Recognition of a new location of the known object (spatial memory); type: in vivo; conditions: 10 mg/kg
Source text: (§1) The object recognition test is based on the fact that mice and rats spontaneously explore new object or location of a known object a lot longer than the know object or a known location of an object. This test was first used in rats (Ennaceur A., Delacour J., 1988). It was further shown by others that this type of memory testing is suitable for mice (Dodart J. et al. 1997, Messier C. 1997, Pittenger C. et al., 2002, Ryabinin A. et al., 2002, Sargolini F. et al., 2003). The method of recognition of an object is divided in two stages. The first one involves the recognition of a new location of a known object, which is used to assess spatial memory. The second one includes a test for recognition of a new in order to evaluate the non-spatial memory (Gaffan D., 1992, Kolb B. et al., 1994, Steckler T., 1998). Currently, both are widely used to determine the effectiveness of newly synthesized drugs on memory.
All experiments were carried out on 3-4 months old males (C57BL/6 line) 22-26 g weight with 10 animals in each group. All animals were kept in the animal facility (5 animals per cage) on the 12×12 hours light cycle (8 am-8 pm) with free access to food and water. […] Brown glass vials were used as test objects which are 2.7 cm in diameter (1.1 inch) and 5.5 cm high (2.2 inch). All vials were treated with 85% ethanol 2-3 minutes before each testing. Animals were placed in the center of the chamber.
(§2) Dimebon and compounds of the invention were dissolved in distilled water and administered orally at 0.05 mL per 10 g of animal mass 1 hour before the training exercise. All animals in the control group were treated with the equivalent dose of vehicle. The testing was performed 48 hours after the training exercise because animals forget the location of the object during the 48-hour resting time.
On the first day animals were brought in the testing room so that they could adapt to the testing environment for 20-30 min. Subsequently, each animal was placed in the empty testing chamber for 10 min, which was wiped with alcohol beforehand. After that animals were transferred back into the […] and returned to the animal facility.
The next day after habituation, the animals were brought back into the testing room where they were weighed and injected with the testing compound. An hour after injection, each animal was placed into the testing camber which had two identical objects that were positioned 14.5 cm (5.7 inches) from the corners on the diagonal. The training exercise lasted for 15 min for each animal. Subsequently, each animal was placed back into the cage and returned into the animal house.
The testing procedure was performed 48 hours after the training exercise. During the procedure two objects were used as in the training exercise. […] The amount of time that each animal spent on exploration each object was determined with 0.1 sec accuracy using two electronic stopwatches for total of 10 min. […] The survey of the object was counted as positive if the nose of an animal was pointed within 2 cm or if the animal was touching the objected directly with the nose.
Due to fair differences in the amount of time that each animal surveyed the object, the percentage of the survey time for each animal was determined using this formula: tNL/(tFL+tNL)×100 (where t is time, NL—new location(object), and FL—familiar location(object)). […] Subsequently, the statistical significance was analyzed using a Student's t-test criteria.

C57BL/6 mice [3] = assay: Recognition of the new object (non-spatial recognition memory); type: in vivo
Source text: as §1, §2
The following experiment was also performed on 3-4 months old males (C57BL/6 line) with 10 animals in each group. All animals were kept in the animal facility (5 animals per cage) on the 12×12 hours light cycle (8 am-8 pm) with free access to food and water. However, in this case a round bottom testing chamber 52 cm in diameter (20.5 inches) and 34 cm (13.4 inches) high was used. Similarly, brown glass vials were used as test objects which are 2.7 cm in diameter (1.1 inch) and 5.5 cm high (2.2 inch). The testing compounds were administered orally at 0.05 mL per 10 g of animal mass 1 hour before the training exercise. All animals in the control group were treated with the equivalent dose of vehicle. The testing was performed 48 hours after the training exercise because animals forget the location of the object during the 48-hour resting time.
The experimental procedure was identical to the previously described test (Recognition of a new location of a known object). The major difference is in the testing procedure which involved one known object (brown glass vial) and one unknown object. The second glass vial was substituted with metallic cylinder 3 cm (1.2 inches) in diameter and 4.5 cm (1.8 inches) high.
Due to fair differences in the amount of time that each animal surveyed the object, the percentage of the survey time for each animal was determined using this formula: tNL/(tFL+tNL)×100 (where t is time, NL—new location(object), and FL—familiar location(object)). As 100% was taken the total amount of time that animals explored both objects. Subsequently, the statistical significance was analyzed using a Student's t-test criteria.

[4] = 0.05 mg/kg, 1 hour prior to training, test 48 hours after training

SMILES: CN1CCc2c(c3cc(Cl)ccc3n2CCc2ccc(C(F)(F)F)nc2)C1 [Compound 250]
- compound type (classification by receptor binding profile and neurite outgrowth) [1]: Type one

SMILES: CN1CCc2c(c3cc(Cl)ccc3n2CCc2nc(-c3ccccc3)cs2)C1 [Compound C1-8]
- depolarizing activity in safranine test (rat brain mitochondria): depolarizing activity

SMILES: Cc1ccc2c(c1)c1c(n2CCc2ccc(C)nc2)CCN(C)C1 [Dimebon, dimebon, reference compound]
- time to explore the known object in a new location, % of the total time (C57BL/6 mice [2]): 61.2±5%
- time to explore the object in a known position, % of the total time (C57BL/6 mice [2]): 38.8±5%
- effect on memory in the new object recognition test (C57BL/6 mice [3]; 0.005 mg/kg): memory activating effect
- time spent to recognize the known object, % of the total time (C57BL/6 mice [3]; [4]): 34.4±4.4%
- time spent to recognize the new object, % of the total time (C57BL/6 mice [3]; [4]): 65.6±4.4%
- effect on memory in the new object recognition test (C57BL/6 mice [3]; 0.5 mg/kg): not statistically significant
- effect on memory in the new object recognition test (C57BL/6 mice [3]; 1-2 mg/kg): the stimulating effect on memory returned
